From PubChem BioAssay AID2060903 (Molecular Pharmacology Branch, DTP, NCI, 2025)

System: 377384-186-R-J1-PDC complex spheroid viability
Assay: Anticancer human tumor 377384-186-R-J1-PDC patient-derived pancreatic carcinoma cell line growth inhibition [RAS]
Settings: for IC50: curve of first compound; for viability, T/C: stronger effect = lower value; active = viability on the fitted dose curve at most 10% of control; inactive = the rest
Procedure, shortened: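 Multi-cell-type spheroids: tumor cells plus HUVEC endothelial cells and mesenchymal stem cells. RAS-pathway inhibitors were combined with targeted agents, each dosed in half-log steps down from clinical Cmax, or from 10 microM when Cmax was unknown.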
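Also: spheroids exposed to compounds for seven days before readout.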

CC1(O)CCCC1n1c(=O)c(C(F)F)cc2cnc(NC3CCN(S(C)(=O)=O)CC3)nc21 (configuration not stated) + C=CC(=O)N1CCN(c2nc(OCC3CCCN3C)nc3c(F)c(-c4nc(N)cc(C)c4C(F)(F)F)c(Cl)cc23)C(C)C1
77.1 nM: IC50 (second compound 0.1 µM)
67.5 nM: IC50 (second compound 1 µM)
inactive: viability, T/C (second compound 0.00316 µM, first compound 0.0316 µM) 81.1% | viability, T/C (second compound 0.00316 µM, first compound 0.1 µM) 49.7% | viability, T/C (second compound 0.00316 µM, first compound 0.316 µM) 17% | viability, T/C (second compound 0.00316 µM, first compound 1 µM) 24.2% | viability, T/C (second compound 0.00316 µM, first compound 3.16 µM) 33.9% | viability, T/C (second compound 0.00316 µM, first compound 10 µM) 4.64% | viability, T/C (second compound 0.01 µM, first compound 0.0316 µM) 89.5% | viability, T/C (second compound 0.01 µM, first compound 0.1 µM) 45.1% | viability, T/C (second compound 0.01 µM, first compound 0.316 µM) 21.4% | viability, T/C (second compound 0.01 µM, first compound 1 µM) 20.8% | viability, T/C (second compound 0.01 µM, first compound 3.16 µM) 28.8% | viability, T/C (second compound 0.01 µM, first compound 10 µM) 4.18% | viability, T/C (second compound 0.0316 µM, first compound 0.0316 µM) 73.4% | viability, T/C (second compound 0.0316 µM, first compound 0.1 µM) 49% | viability, T/C (second compound 0.0316 µM, first compound 0.316 µM) 20.9% | viability, T/C (second compound 0.0316 µM, first compound 1 µM) 20.7% | viability, T/C (second compound 0.0316 µM, first compound 3.16 µM) 29.1% | viability, T/C (second compound 0.0316 µM, first compound 10 µM) 5.27% | viability, T/C (second compound 0.1 µM, first compound 0.0316 µM) 79.3% | viability, T/C (second compound 0.1 µM, first compound 0.1 µM) 42.1% | viability, T/C (second compound 0.1 µM, first compound 0.316 µM) 20.4% | viability, T/C (second compound 0.1 µM, first compound 1 µM) 24.4% | viability, T/C (second compound 0.1 µM, first compound 3.16 µM) 29.3% | viability, T/C (second compound 0.1 µM, first compound 10 µM) 4.69% | viability, T/C (second compound 0.316 µM, first compound 0.0316 µM) 74.3% | viability, T/C (second compound 0.316 µM, first compound 0.1 µM) 42.8% | viability, T/C (second compound 0.316 µM, first compound 0.316 µM) 17.7% | viability, T/C (second compound 0.316 µM, first compound 1 µM) 21.5% | viability, T/C (second compound 0.316 µM, first compound 3.16 µM) 33% | viability, T/C (second compound 0.316 µM, first compound 10 µM) 5.33% | viability, T/C (second compound 1 µM, first compound 0.0316 µM) 69.4% | viability, T/C (second compound 1 µM, first compound 0.1 µM) 39.9% | viability, T/C (second compound 1 µM, first compound 0.316 µM) 19.7% | viability, T/C (second compound 1 µM, first compound 1 µM) 22.5% | viability, T/C (second compound 1 µM, first compound 3.16 µM) 32.5% | viability, T/C (second compound 1 µM, first compound 10 µM) 6.56%
86.6 nM: IC50 (second compound 0.01 µM)
76.9 nM: IC50 (second compound 0.316 µM)
98.8 nM: IC50 (second compound 0.00316 µM)
95.4 nM: IC50 (second compound 0.0316 µM)
